According to patent publication US6780421B1, “Adjuvant for a vaccine composition” (priority 1997, dated 2004):

Legend:
[1] = tested on: influenza virus (Strain A/Singapore); assay: Anti-HA antibody titration by inhibition of influenza virus-induced haemagglutination after subcutaneous immunization; type: in vivo, Balb/c mice; conditions: 5 μg of HA, in comparison with mice which received the vaccine without adjuvant (Group A)
Method: 5 groups of 4 Balb/c mice are immunized by 3 subcutaneous injections performed on D0, D21 and D36 with the following vaccine compositions:
Group A: 0.3 ml of diluted strain A/Singapore monovalent influenza vaccine containing 5 μg of HA in 0.3 ml of PBS,
Group B: 0.3 ml of vaccine composition obtained according to Example 2,
Group C: 0.3 ml of vaccine composition obtained according to Example 3,
Group D: 0.3 ml of vaccine composition obtained according to Example 6,
Group E: 0.3 ml of vaccine composition obtained according to Example 7.
In order to perform the assays for neutralizing antibodies, the sera of mice are sampled on D21, D36 and […], and the titration of anti-HA antibodies is performed by means of the technique of inhibition of influenza virus-induced haemagglutination.
The titres of neutralizing antibodies in the mouse sera are presented in the form of log2 of the highest dilution inducing haemagglutination inhibition.

[2] = tested on: trivalent influenza vaccine comprising strain A/Texas, strain B/Panama and strain A/Beijing; assay: Tests with a trivalent influenza vaccine; type: in vivo
[3] = tested on: strain A/Singapore monovalent influenza vaccine; assay: Immune response (HAI) as a function of the dose of DC chol; type: in vivo, female Balb/c mice; conditions: DC chol/DOPC liposomes, injected D0 and D28, sera D42
[4] = tested on: strain A/Singapore monovalent influenza vaccine; assay: Induction of antibody isotypes IgG1 and IgG2 (ELISA) in adult mice; type: in vivo, 8- to 10-week-old female BALB/c adult mice; conditions: 400 μg of DC chol with DOPC
[5] = tested on: strain A/Singapore monovalent influenza vaccine; assay: Induction of antibody isotypes (ELISA) in elderly mice; type: in vivo, 20 to 22-month-old mice; conditions: primary and secondary response
Method: The same experiment is carried out exactly as in Example 12 but, in this instance, the mice tested are 20 to 22-month-old mice which are more difficult to stimulate.

[6] = tested on: strain A/Singapore monovalent influenza vaccine; assay: Immunization by combined subcutaneous and intranasal administration; type: in vivo, BALB/c mice
Method: Two groups of 4 BALB/c mice are immunized twice with an interval of 4 weeks with, on each occasion, the following vaccine compositions:
Group 3 (G3):—a vaccine composition of 300 μl injected subcutaneously comprising 4 μg of HA (in the form of strain A/Singapore monovalent influenza vaccine) combined with […] of DC chol (in the form of DC chol/DOPC liposomes), and
a vaccine composition of 50 μl administered intranasally comprising 0.25 μg of HA (in the form of strain A/Singapore monovalent influenza vaccine) combined with 6 μg of DC chol (in the form of DC chol/DOPC liposomes),
Group 4 (G4):—a vaccine composition of 300 μl injected subcutaneously comprising 4 μg of HA combined with 200 μg of DC chol, and
a vaccine composition of 50 μl administered intranasally comprising 0.25 μg of HA combined with 200 μg of DC chol.
The sera of the immunized mice are sampled 3 weeks after the booster administration and, for each mouse, the level of neutralizing antibodies is assayed by the HAI haemagglutination inhibition technique.

## CC(C)CCC[C@@H](C)[C@H]1CC[C@H]2[C@@H]3CC=C4C[C@@H](OC(=O)NCCN(C)C)CC[C@]4(C)[C@H]3CC[C@]12C [DC chol, 3β-[N-(N′,N′-dimethylaminoethane)-carbamoyl]cholesterol]
[1]
  level of anti-HA antibodies (HAI): markedly higher
[2]
  adjuvant power with trivalent influenza vaccine: adjuvant power
[3]
  dose of DC chol at which the maximum benefit of the adjuvant effect is obtained (HAI titre): above 100 μg of DC chol/dose
[4]
  IgG2a produced (ELISA): large increase
[4]; primary and secondary response, in comparison to aluminium hydroxide
  adjuvant effect on IgG1 and IgG2 produced (ELISA): adjuvant effect
[5]
  adjuvant effect on IgG1 and IgG2 produced (ELISA), in particular IgG2a: adjuvant effect
[6]; 6 versus 200 μg of DC chol
  number of cells secreting IgG and IgA in the lungs (ELISPOT): dose effect: identical dose effect
  ratio of specific IgG (or IgA) to total IgG (or IgA) in nasopharyngeal lavage fluids: dose effect: identical dose effect
  serum IgG measured by ELISA: dose effect: identical dose effect
[6]; dose of DC chol from 6 to 200 μg, mixed subcutaneous and intranasal
  level of neutralizing antibodies (HAI): effect of the dose of DC chol: enables the immune response to be increased
[6]; mixed subcutaneous and intranasal administration
  level of neutralizing antibodies (HAI): adjuvant effect: adjuvant effect
